Test results from patent US20220364056A1, “SHORT-CHAIN FATTY ACID PENTANOATE AS ENHANCER FOR CELLULAR THERAPY AND ANTI-TUMOR THERAPY” (PHILIPPS-UNIVERSITÄT MARBURG, priority 2019, published 2022).

Columns and labels:
mTOR = experiment: phosphorylation of mTOR and S6 in murine CTLs; assay type: cell-based; conditions: pentanoate 2.5 mM, three days
Protocol: (A and B) CTLs were cultured in medium containing 1.0% FCS and treated with pentanoate (2.5 mM) for three days. Representative histogram plots and bar graphs indicate the phoshorylated levels of mTOR (A) and S6 ribosomal protein (B), respectively (n=3 pooled from three independent experiments). (C and D) Human CTLs were cultured in medium containing 1.0% serum and treated with indicated HDACi for three days. Representative histogram plots and bar graphs indicate the phoshorylated levels of mTOR (C) and S6 ribosomal protein (D), respectively (data points represent four individual healthy donors) (E) Measurement of extracellular acidification rate (ECAR) for in vitro generated murine CTLs cultured with or without 2.5 mM pentanoate for three days. ECAR was measured under basal conditions and in response to glucose (10 mM), oligomycin (2 μM), and 2-deoxy-glucose (2-DG, 100 mM). One of three independent experiments is shown.

HDAC2 = HDAC2 (Homo sapiens, UniProt Q92769); experiment: HDAC inhibition of the recombinant HDAC2 isoform; assay type: biochemical; conditions: supernatants; different concentrations of SCFAs
Sequence of HDAC2 (Q92769 whole entry, species assumed, canonical isoform): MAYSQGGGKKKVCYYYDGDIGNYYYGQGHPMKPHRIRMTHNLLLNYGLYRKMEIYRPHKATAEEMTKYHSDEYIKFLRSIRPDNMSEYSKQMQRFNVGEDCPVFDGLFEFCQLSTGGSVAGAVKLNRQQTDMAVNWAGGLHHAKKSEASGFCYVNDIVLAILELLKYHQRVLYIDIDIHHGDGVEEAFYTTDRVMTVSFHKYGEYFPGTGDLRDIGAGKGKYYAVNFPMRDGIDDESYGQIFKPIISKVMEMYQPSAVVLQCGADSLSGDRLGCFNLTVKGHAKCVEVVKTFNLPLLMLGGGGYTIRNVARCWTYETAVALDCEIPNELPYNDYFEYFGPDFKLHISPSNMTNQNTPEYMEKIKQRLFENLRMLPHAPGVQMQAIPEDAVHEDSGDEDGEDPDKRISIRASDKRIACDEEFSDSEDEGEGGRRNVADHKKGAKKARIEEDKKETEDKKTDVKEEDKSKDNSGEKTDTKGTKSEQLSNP
Protocol: (A) The production of SCFAs, branched-chain fatty acids (BCFAs) and medium-chain fatty acids (MCFAs) by 16 human commensals was measured by GC-MS. All bacteria were grown in vitro until stationary growth phase before the measurement of fatty acids in supernatants. (B and C) HDAC inhibition of recombinant class I and class II HDAC isoforms by cell-free supernatants derived from 16 members of human commensal community. Significance was tested against YCFA medium. (D) Impact of bacterial SCFAs, BCFAs and MSCFAs on the activity of class I and II HDAC enzymes. TSA was used as a control pan-HDAC inhibitor.

Tc9 and Tc17 cells = experiment: CD8+ T cells polarized under Tc17- or Tc9-inducing conditions; assay type: cell-based, murine; conditions: 3 days
Protocol: (A and B) CD8^+ T cells isolated from spleens and LNs were polarized under Tc17-inducing conditions and treated with pentanoate for 3 days. Representative contour plots (A) and bar graphs (B) indicate the frequency of IL-17^+ and IFN-γ+ cells. Three similar experiments were performed. (C and D) CD8^+ T cells isolated from spleens and LNs were polarized under Tc9-inducing conditions and treated with pentanoate for 3 days. Representative contour plots (C) and bar graphs (D) are showing the frequency of IL-9^+ and IFN-γ+ cells. Three similar experiments were performed. (E and F) The expression of granzyme B, IFN-γ and Eomes in pentanoate-treated human CTLs was analysed by flow cytometry. Five independent experiments were performed (E). For Eomes, mean fluorescence intensity (MFI) values are shown (F, n=3).

PancOVA cells = experiment: adoptive transfer of pretreated OT-I CTLs into mice bearing s.c. PancOVA tumors; assay type: in vivo
Source text: We tested this hypothesis in two different subcutaneous (s.c.) tumor models. We injected s.c. B16OVA melanoma cells into CD45.2^+ mice and transferred either control or pentanoate-treated CD45.1^+ OT-I CTLs into recipient animals on day 5 after tumor injection. […] On day 10 after adoptive transfer of CTLs, we detected a higher number of pentanoate-treated cells expressing more effector cytokines TNF-α and IFN-γ in comparison to control OT-I CTLs in tumors, draining LNs and spleen (FIG. 2, E-G). Furthermore, the anti-tumor effects mediated by treatment of CTLs with pentanoate were tested in aggressive pancreatic tumors expressing OVA protein (OVA-expressing Panc02 cells, PancOVA). To this end, 1.5×10^6 PancOVA cells were injected s.c. into CD45.2^+ mice. […] One area of application is CAR therapy.
(A) Experimental design for the role of SCFAs in promoting anti-tumor immunity. (B-D) After three days of pre-treatment with pentanoate, CD45.1^+ OVA-specific CTLs were transferred intraperitoneally (i.p.) into CD45.2^+ mice bearing 5-days old B16OVA tumors. Tumor volume and tumor mass were analyzed (n=3 mice per group, one of three independent experiments is shown). […]
Tumor weight was determined on day 23 post tumor inoculation. […]

[1] = tested on: murine ROR1-recognizing CAR T lymphocytes; experiment: murine ROR1-specific CAR T cells stimulated with HDACi, ELISA and flow cytometry; assay type: cell-based; conditions: three days of stimulation
Protocol: (A) Experimental design for the analysis HDACi-treated ROR1-specific CD8^+ CAR T cells (CARROR1+HDAC). (B and C) The production of TNF-α and IFN-γ from CAR T cells was measured by ELISA and flow cytometry analysis after three days of stimulation with the indicated HDACi. (D) The surface expression of CD25 on CAR T cells was measured by flow cytometry analysis after three days of stimulation with the indicated HDACi (n=3 combined from 3 independent experiments). (E and F) After three days of pre-treatment with pentanoate, CD19t^+ ROR1-specific CAR T cells were transferred intraperitoneally (i.p) into mice bearing 5-days old PancROR1 tumors. In E, Tumor volume and tumor mass were analyzed (n=3 mice/group/experiment combined from 2 independent experiments). (F) The percentage and total cell number of transferred TNF-α and IFN-γ CD19t^+ ROR1-specific CART cells in the tumor tissue at day 14 after tumor inoculation are shown.

histones H3 and H4 = experiment: Western blot of H3Ac and H4Ac in CD8+ T cells; assay type: cell-based, murine; conditions: SCFAs for 3 days
Protocol: Representative histogram plots (A) and bar graphs (B) are showing the frequency of Annexin V^+ cells. Three similar experiments were performed. (C) Representative effector molecule staining of CD8^+ T cells polarized under suboptimal CTL-inducing conditions, treated with pentanoate or TSA (10 nM Sigma-Aldrich) in presence of 2-DG (1 mM, Sigma-Aldrich) or rapamycin (100 nM, Sigma-Aldrich) for 3 days. Three independent experiments were performed. (D) Western blot analysis of H3Ac and H4Ac in CD8^+ T cells treated with SCFAs for 3 days. (E) Pan-H4Ac ChIP qPCR analysis for Tbx21 promoter accessibility in pentanoate-treated CTLs. Data are from pooled chromatin of three mice. (F and G) CD8^+ T cells isolated from WT and Tbx21^−/− mice were polarized under suboptimal CTL-inducing conditions in presence of increasing pentanoate concentrations. Representative contour plots (F) and bar graphs (G) show the frequency of IFN-γ+ and IL-17A^+ cells. Two similar experiments were performed.

Compound: CCCCC(=O)O [pentanoate]
- phosphorylation level of S6 ribosomal protein (mTOR): elevated the phosphorylation levels
- phosphorylation level of mTOR (mTOR): elevated the phosphorylation levels
- inhibition of the HDAC2 isoform (HDAC2): strongly inhibited
- phenotype of Tc9 and Tc17 cells (Tc9 and Tc17 cells): phenotypical switch towards IFN-γ-producing CTLs
- growth of PancOVA cells in recipient animals (PancOVA cells; 7.5×10^5 pentanoate-treated OT-I CD8+ T lymphocytes): completely eliminate the growth
- persistence of transferred CTLs within draining LNs and spleen (PancOVA cells; day 23 after tumor inoculation): persistence of pentanoate-treated CTLs with high IFN-γ production
- TNF-α and IFN-γ production of CAR T cells [1]: enhanced
- expression of CD25 on CAR T cells [1]: enhanced
- acetylation of histones H3 and H4 (histones H3 and H4): increased acetylation
